# Test results as given in patent US7320992B2, “Substituted 2,3-dihydro-1h-isoindol-1-one derivatives and methods of use” (Amgen Inc., priority 2003, dated 2008).
# Test system: VEGF-stimulated HUVEC proliferation (Human Umbilical Vein Endothelial cells)
# Assay: HUVEC Proliferation Assay
# Assay type: cell-based
# Details: 72 h incubation, CyQuant readout, read-out: inhibited VEGF-stimulated HUVEC proliferation at a level (IC50)
# Description: Human Umbilical Vein Endothelial cells are purchased from Clonetics, Inc., as cryopreserved cells harvested from a pool of donors. These cells, at passage 1, are thawed and expanded in EBM-2 complete medium, until passage 2 or 3. The cells are trypsinized, washed in DMEM+10% FBS+antibiotics, and spun at 1000 rpm for 10 min. Prior to centrifugation of the cells, a small amount is collected for a cell count. After centrifugation, the medium is discarded, and the cells are resuspended in the appropriate volume of DMEM+10% FBS+antibiotics to achieve a concentration of 3×10^5 cells/mL. Another cell count is performed to confirm the cell concentration. The cells are diluted to 3×10^4 cells/mL in DMEM+10% FBS+antibiotics, and 100 μL of cells are added to a 96-well plate. The cells are incubated at 37° C. for 22 h.
# Prior to the completion of the incubation period, compound dilutions are prepared. Five-point, five-fold serial dilutions are prepared in DMSO, at concentrations 400-fold greater than the final concentrations desired. 2.5 μL of each compound dilution are diluted further in a total of 1 mL DMEM+10% FBS+antibiotics (400× dilution). Medium containing 0.25% DMSO is also prepared for the 0 μM compound sample. At the 22 h timepoint, the medium is removed from the cells, and 100 μL of each compound dilution is added. The cells are incubated at 37° C. for 2-3 h.
# During the compound pre-incubation period, the growth factors are diluted to the appropriate concentrations. Solutions of DMEM+10% FBS+antibiotics, containing either VEGF or bFGF at the following concentrations: 50, 10, 2, 0.4, 0.08, and 0 ng/mL are prepared. For the compound-treated cells, solutions of VEGF at 550 ng/mL or bFGF at 220 ng/mL for 50 ng/mL or 20 ng/mL final concentrations, respectively, are prepared since 10 μL of each will be added to the cells (110 μL final volume). At the appropriate time after adding the compounds, the growth factors are added. VEGF is added to one set of plates, while bFGF is added to another set of plates. For the growth factor control curves, the media on wells B4-G6 of plates 1 and 2 are replaced with media containing VEGF or bFGF at the varying concentrations (50-0 ng/mL). The cells are incubated at 37° C. for an additional 72 h.
# At the completion of the 72 h incubation period, the medium is removed, and the cells are washed twice with PBS. After the second wash with PBS, the plates are tapped gently to remove excess PBS, and the cells are placed at −70° C. for at least 30 min. The cells are thawed and analyzed using the CyQuant fluorescent dye (Molecular Probes C-7026), following the manufacturer's recommendations. The plates are read on a Victor/Wallac 1420 workstation at 485 nm/530 nm (excitation/emission). Raw data are collected and analyzed using a 4-parameter fit equation in XLFit. IC50 values are then determined.
row,Compound,IC50 [nM]
1,"CC(C)(C)c1ccc(N2Cc3cccc(NCc4ccncc4)c3C2=O)cc1 [Example 1, 2-(4-(1,1-Dimethylethyl)phenyl)-7-((4-pyridinylmethyl)amino)-2,3-dihydro-1H-isoindol-1-one]",< 500
2,"CC(=O)N1CC(C)(C)c2ccc(N3Cc4cccc(NCc5ccncc5)c4C3=O)cc21 [Example 16, 2-(1-acetyl-3,3-dimethyl-2,3-dihydro-1H-indol-6-yl)-7-[(pyridin-4-ylmethyl)-amino]-2,3-dihydro-isoindol-1-one]",< 500
3,CC1(C)CNc2cc(N3Cc4cccc(NCc5ccncc5)c4C3=O)ccc21 [Example 17],< 500
4,CC1(C)CNCc2cc(N3Cc4cccc(NCc5ccncc5)c4C3=O)ccc21 [Example 20],< 500
5,"CC(C)(C)c1ccc(N2Cc3cccc(NCc4c[nH]c5ncccc45)c3C2=O)cc1 [Example 32, 2-(4-tert-butyl-phenyl)-7-[(1H-pyrrolo [2,3-b]pyridin-3-ylmethyl)-amino]-2,3-dihydro-isoindol-1-one]",< 500
6,CC1(C)CNCc2cc(N3Cc4cccc(NCc5c[nH]c6ncccc56)c4C3=O)ccc21 [Example 35],< 500
7,"CC(C)(C)c1cc(N2Cc3cccc(NCc4ccncc4)c3C2=O)[nH]n1 [Example 46, 2-(5-tert-butyl-2H-pyrazol-3-yl)-7-[(pyridin-4-ylmethyl)-amino]-2,3-dihydro-isoindol-1-one]",< 500
8,"CC1(C)CNCc2cc(N3Cc4cccc(NCc5ccc6ncccc6c5)c4C3=O)ccc21 [Example 64, 2-(4,4-Dimethyl-1,2,3,4-tetrahydro-isoquinolin-7-yl)-7-[(quinolin-6-ylmethyl)-amino]-2,3-dihydro-isoindol-1-one]",< 500
9,"CC(C)(C)c1ccc(N2Cc3ccnc(NCc4ccncc4)c3C2=O)cc1 [Example 80, 2-(4-tert-butyl-phenyl)-4-[(pyridin-4-ylmethyl)-amino]-1,2-dihydro-pyrrolo[3,4-c]pyridin-3-one]",< 500
10,"CC(C)(C)c1ccc(N2Cc3ccnc(NCc4ccnc(N)c4)c3C2=O)cc1 [Example 83, 4-[(2-amino-pyridin-4-ylmethyl)-amino]-2-(4-tert-butyl-phenyl)-1,2-dihydro-pyrrolo[3,4-c]pyridin-3-one]",< 500
